According to patent publication US7897723B2, “ErbB receptor-derived peptide fragments” (Københavns Universitet, priority 2006, dated 2011):
Bridges are numbered along the chain shown (N, C = ends). Roman numbers before positions name the chains, in order. Where no end group is shown, it is not given here.

How the values were obtained:
[1] = tested on: L929 cells; assay: Cell proliferation (BrdU incorporation); assay type: cell-based; conditions: L929 cells
Protocol: 2000 L929 cells (ECACC no: 85011425) per well were seeded in a 96 well plate in full medium (containing 10% foetal calf serum) or starvation medium (serum-free). Peptides, ErbB1 kinase inhibitor PD153035 (Calbiochem), and EGF (Sigma-Aldrich) were added immediately after seeding of the cells (for experiments done in full serum) or after 8 hours of incubation (for experiments done in starvation medium) in the concentrations indicated in figures. Cells were grown for 6 hours, then 10 μM bromodeoxyuridine (BrdU) was added, and cells were grown for additional 18 hours. Then, BrdU incorporation in the cells was assayed using the Biotrak ELISA System, version 2 from Amersham Biosciences Europe GmbH (Buckinghamshire, UK) following the manufacturer's protocol.

[2] = tested on: HN5 cells; assay: Cell viability / cell growth (MTS staining); assay type: cell-based, human; conditions: absence and presence of EGF, absence and presence of serum (FIGS. 6A and B)
Protocol: 2000 HN5 cells per well were seeded in a 96 well plate in full medium (containing 10% fetal calf serum) or starvation medium (serum-free). After 12 hours of incubation, peptides or ErbB1 kinase inhibitor PD153035 (Calbiochem) and/or EGF (Sigma-Aldrich) were added in the concentrations indicated in figures. Cells were grown for 72 hours, then 20 μl MTS One Solution Reagent (Promega, Madison, Wis., USA) were added per 100 μl culture medium in each well, and the plates were incubated for 1-2 hours at 37° C., followed by absorbance measurements at 490 nm.

[3] = molecular target: T1, extracellular part of human ErbB2 (Fc chimeric protein) (Homo sapiens, UniProt P04626); assay: Surface plasmon resonance (SPR) binding analysis, ErbB2; conditions: peptide immobilized on sensor chip, mean ± SEM
T1 construct: the Fc protein fused to the extracellular parts of human ErbB2, ErbB3 or ErbB4; purchased R&D Systems Europe (Abingdon, UK)
Protocol: (§1) Binding analyses were performed with the surface plasmon resonance (SPR)-based biosensor instrument BIAcore2000 (BIAcore AB, Uppsala, Sweden), at 25° C. using ready-made HBS-EP buffer (BIAcore AB) as running buffer. Peptides were immobilized on the surface of a CM5 sensor chip (BIAcore AB) using an amine coupling kit (Biosensor AB, Uppsala, Sweden) according to the manufacturer's instructions, at a flow rate of 5 μl/min. Briefly, carboxyl groups on the sensor chip surface were activated by injection of 35 μl activation solution followed by injection of peptide (50 μg/ml peptide in HBS-EP buffer, pH 7.4) until the desired level of immobilized peptide was reached. Unreacted peptide was washed out and unreacted activated groups were blocked by the injection of 35 μl 1 M ethanolamine. […] A reference surface was generated simultaneously under the same conditions but without peptide injection and used as a blank chip control. ErbB receptor proteins were injected at various concentrations at a flow rate of 20 μl/min, and binding to the peptides immobilized on the chip was measured in real-time. The curve corresponding to the difference between signals on flow cells with immobilized peptide and the signal on the blank flow cell was used for analysis. […] Data were analyzed by nonlinear curve fitting using the manufacturer' software. […]

[4] = molecular target: T2, extracellular part of human ErbB4 (Fc chimeric protein) (Homo sapiens, UniProt Q15303); assay: Surface plasmon resonance (SPR) binding analysis, ErbB4; conditions: peptide immobilized on sensor chip, mean ± SEM
T2 construct: the Fc protein fused to the extracellular parts of human ErbB2, ErbB3 or ErbB4; purchased R&D Systems Europe (Abingdon, UK)
T2 sequence (Q15303 26-651 limits assumed): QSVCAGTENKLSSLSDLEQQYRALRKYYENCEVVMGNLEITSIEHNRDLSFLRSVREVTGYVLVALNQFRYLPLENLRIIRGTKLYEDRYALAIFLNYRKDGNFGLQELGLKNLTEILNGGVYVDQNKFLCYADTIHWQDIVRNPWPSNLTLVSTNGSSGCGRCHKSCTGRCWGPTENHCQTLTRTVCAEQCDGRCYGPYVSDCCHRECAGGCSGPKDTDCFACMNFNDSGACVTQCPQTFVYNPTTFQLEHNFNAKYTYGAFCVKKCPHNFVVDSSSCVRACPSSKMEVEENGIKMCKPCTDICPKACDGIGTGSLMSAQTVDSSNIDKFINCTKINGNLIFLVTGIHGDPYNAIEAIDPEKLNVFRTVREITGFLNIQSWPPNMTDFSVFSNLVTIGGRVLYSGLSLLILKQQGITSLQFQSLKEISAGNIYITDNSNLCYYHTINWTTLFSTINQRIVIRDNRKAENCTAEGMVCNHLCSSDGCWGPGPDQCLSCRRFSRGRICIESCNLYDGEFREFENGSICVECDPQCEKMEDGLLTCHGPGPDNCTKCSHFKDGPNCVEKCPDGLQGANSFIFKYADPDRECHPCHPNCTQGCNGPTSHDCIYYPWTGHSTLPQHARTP
Protocol: as §1

[5] = molecular target: ErbB1 (Homo sapiens, UniProt P00533); assay: ErbB receptor phosphorylation, HN5 cells; assay type: cell-based; design: the ErbB1 overexpressing human head and neck cancer cell line HN5; endogenous in cells; host or cells: HN5 human head and neck cancer cells; conditions: 100 μM peptide for 30 min, 10 ng/ml EGF for 10 min (FIG. 8)
Protocol: The cells employed for this assay were NR6 wtEGFR cells, which are fibroblastoid cells stably transfected with ErbB1, and human head and neck tumor-derived HN5 cell. Confluent NR6 wtEGFR or HN5 cells were treated with peptide in the indicated concentrations for 30 min, then stimulated with 10 ng/ml EGF (Sigma-Aldrich, St. Louis, Mo., USA) for 10 min. Cells were lysed in lysis buffer (1% (v/v) Triton X-100, 150 mM NaCl, 10 mM Tris pH 7.4, 1 mM EDTA, 1 mM EGTA, 0.5% (v/v) NP-40, phosphatase inhibitors (Phosphatase Inhibitor Cocktail Set II from Calbiochem, La Jolla, Calif., USA) and protease inhibitors (Complete™ Protease Inhibitor Cocktail from Boehringer Mannheim Biochemica, Mannheim, Germany)), and cleared lysate samples containing equal amounts of total protein (as determined by a bicinchoninic acid assay (Pierce, Rockford, Ill., USA)) were subjected in duplicates to 4-12% SDS-PAGE and immunoblotting. One membrane was probed with anti-phospho-EGFR (phosphotyrosine 1068) antibody (Cell Signaling Technology, Danvers, Mass., USA), the other with anti-EGFR antibody (Cell Signaling Technology). Detection was carried out using horseradish peroxidase (HRP)-conjugated secondary antibodies (DAKO, Denmark) and enhanced chemiluminiscence (Pierce). The intensity of bands was quantified using densitometric analysis employing the software package GeneTools (Syngene, Cambridge, UK).

[6] = starvation medium, 10 or 100 ng/ml EGF, BrdU incorporation (FIG. 4)
[7] = full medium, BrdU incorporation (FIG. 2, FIG. 3)

T1 sequence (P04626 23-652 limits assumed, change not shown): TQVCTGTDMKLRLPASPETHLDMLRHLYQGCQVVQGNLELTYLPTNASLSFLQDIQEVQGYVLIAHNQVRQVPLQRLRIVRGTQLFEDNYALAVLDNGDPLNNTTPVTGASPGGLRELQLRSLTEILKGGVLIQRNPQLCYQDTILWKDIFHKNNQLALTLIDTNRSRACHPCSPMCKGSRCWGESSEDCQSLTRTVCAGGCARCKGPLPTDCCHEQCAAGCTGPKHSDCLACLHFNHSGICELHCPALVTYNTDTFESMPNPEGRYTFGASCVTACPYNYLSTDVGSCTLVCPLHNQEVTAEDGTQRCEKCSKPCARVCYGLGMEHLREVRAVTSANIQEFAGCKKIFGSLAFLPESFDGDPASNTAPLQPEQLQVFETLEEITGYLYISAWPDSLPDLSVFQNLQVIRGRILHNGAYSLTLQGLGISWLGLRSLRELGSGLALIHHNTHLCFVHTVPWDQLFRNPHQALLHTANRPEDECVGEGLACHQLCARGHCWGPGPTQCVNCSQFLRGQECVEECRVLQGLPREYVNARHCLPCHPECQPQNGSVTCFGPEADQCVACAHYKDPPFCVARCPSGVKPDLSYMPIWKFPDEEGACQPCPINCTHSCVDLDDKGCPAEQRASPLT

| Compound | effect on EGF-induced cell proliferation [1, 6] | effect on HN5 cell growth [2] | KD for binding to ErbB2 [3] | KD for binding to ErbB4 [4] | effect on EGF-induced cell proliferation [1, 7] | other results |
| --- | --- | --- | --- | --- | --- | --- |
| COc1cc2ncnc(Nc3cccc(Br)c3)c2cc1OC [PD153035, reference compound] | blocked cell proliferation induced by stimulation with either 10 or 100 ng/ml EGF | strongly inhibited growth of the cells both in absence and presence of EGF-stimulation and in the absence and presence of serum |  |  |  |  |
| I: H-MLYNPTTYQMDVNPEGKKK / II: H-MLYNPTTYQMDVNPEGKK / III: H-MLYNPTTYQMDVNPEGK / IV: H-MLYNPTTYQMDVNPEGK (amide I:18-IV:C, I:19-II:C, II:18-III:C) [Inherbin 1DL, MLYNPTTYQMDVNPEGK] |  |  | No binding | No binding |  |  |
| I: LVYNKLTFQLEPNPHTKKK / II: LVYNKLTFQLEPNPHTKK / III: LVYNKLTFQLEPNPHTK / IV: LVYNKLTFQLEPNPHTK (amide I:18-IV:C, I:19-II:C, II:18-III:C) [Inherbin3d] | inhibited EGF-induced cell proliferation |  | No binding | No binding |  | peptide doses that significantly inhibited cell proliferation ([1]; proliferation induced by either 10 or 100 ng/ml EGF (FIG. 4)): ≥ 0.6 µM |
| Inherbin3n: truncated peptide constituting the N-terminal half of the Inherbin3 peptide (possibly B3dln, SEQ ID NO: 36) (PLVYNKLT; B3dln peptide) |  |  |  |  | inhibited EGF-induced cell proliferation to the same extent as Inherbin3 |  |
| KHKLPYNFNLETTVQPL (also: tetrameric dendrimer on lysine backbone) [Scr-Inherbin3d, reference compound] |  | no significant effects on HN5 cell growth |  |  |  |  |
| VTYNTDTFESMPNPEGR (Inherbin 2 peptide) [Inherbin2] |  |  |  |  | able to inhibit EGF-induced cell proliferation significantly | effect on EGF-induced ErbB1 phosphorylation [5]: not statistically significant |
